Values after ≈ are worked out from the molar mass of the structure shown. Active and inactive are the calls of the source. The calls are words filed in the database; no cut-off is given here.
Experiments:
[1] = target: Macrophage metalloelastase (Homo sapiens, UniProt P39900); assay: Inhibition of MMP12
[2] = Aqueous solubility of the compound; assay type: physicochemical; settings: buffer
Integrin alpha-V/beta-3 [3] = target: T1, Integrin alpha-V/beta-3 (Homo sapiens, UniProt P05106+P06756); assay: Antagonist activity at alphavbeta3 integrin receptor human VSMC assessed as inhibition of vitronectin-induced cell adhesion; assay type: functional, cell-based
[4] = Antiplatelet activity in human platelet rich plasma assessed as inhibition of platelet aggregation; assay type: functional
[5] = target: Integrin alpha-IIb/beta-3 (Homo sapiens, UniProt P05106+P08514); assay: Antagonist activity at alpha2bbeta3 integrin receptor; assay type: functional
Integrin alpha-V/beta-3 [6] = target: T1, Integrin alpha-V/beta-3; assay: Antagonist activity at alphavbeta3 integrin receptor; assay type: functional
[7] = Aqueous solubility of the compound in water
[8] = target: T2, Peroxisome proliferator-activated receptor alpha (Homo sapiens) (UniProt Q07869); assay: Agonist activity at PPARalpha at 1 uM; assay type: functional
T2 sequence (whole entry): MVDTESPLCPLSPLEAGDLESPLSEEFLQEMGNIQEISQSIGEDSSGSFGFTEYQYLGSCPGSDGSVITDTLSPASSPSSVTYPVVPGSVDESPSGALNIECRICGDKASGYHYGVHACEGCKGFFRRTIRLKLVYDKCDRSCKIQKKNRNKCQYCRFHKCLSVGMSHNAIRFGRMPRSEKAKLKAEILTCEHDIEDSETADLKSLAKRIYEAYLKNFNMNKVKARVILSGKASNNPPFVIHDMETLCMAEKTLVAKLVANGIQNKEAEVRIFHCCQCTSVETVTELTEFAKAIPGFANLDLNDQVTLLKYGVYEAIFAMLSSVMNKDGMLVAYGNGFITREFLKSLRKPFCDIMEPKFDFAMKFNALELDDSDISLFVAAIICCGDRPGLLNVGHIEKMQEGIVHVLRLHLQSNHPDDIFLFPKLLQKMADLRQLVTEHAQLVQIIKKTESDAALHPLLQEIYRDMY

[9] = Aqueous solubility of the compound at pH 7.4; assay type: physicochemical; settings: buffer
[10] = Inhibition of Escherichia coli H560 DNA gyrase mediated DNA cleavage
[11] = Oral bioavailability in rat; settings: in vivo

Sequence of Integrin alpha-IIb/beta-3 (P05106 27-788 limits assumed): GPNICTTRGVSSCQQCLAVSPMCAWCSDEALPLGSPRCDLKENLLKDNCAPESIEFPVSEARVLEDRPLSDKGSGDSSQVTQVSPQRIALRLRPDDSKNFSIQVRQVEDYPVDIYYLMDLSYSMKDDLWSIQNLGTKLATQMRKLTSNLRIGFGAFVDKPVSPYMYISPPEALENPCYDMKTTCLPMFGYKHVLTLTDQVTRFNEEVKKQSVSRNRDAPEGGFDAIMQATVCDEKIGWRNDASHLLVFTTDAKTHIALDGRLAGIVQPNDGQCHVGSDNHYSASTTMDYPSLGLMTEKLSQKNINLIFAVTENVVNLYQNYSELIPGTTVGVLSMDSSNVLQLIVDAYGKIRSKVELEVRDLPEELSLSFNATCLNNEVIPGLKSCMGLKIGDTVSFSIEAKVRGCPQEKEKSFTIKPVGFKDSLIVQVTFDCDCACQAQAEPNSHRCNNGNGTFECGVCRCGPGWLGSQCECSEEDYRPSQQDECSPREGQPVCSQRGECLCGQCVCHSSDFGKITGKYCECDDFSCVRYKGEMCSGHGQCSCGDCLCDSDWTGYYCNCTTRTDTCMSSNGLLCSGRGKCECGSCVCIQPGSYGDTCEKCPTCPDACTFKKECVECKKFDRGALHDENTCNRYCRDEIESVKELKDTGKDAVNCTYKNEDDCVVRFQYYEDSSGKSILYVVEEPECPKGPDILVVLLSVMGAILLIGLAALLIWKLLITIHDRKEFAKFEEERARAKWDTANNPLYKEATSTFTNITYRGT
Sequence of Integrin alpha-IIb/beta-3 (P08514 32-887 limits assumed): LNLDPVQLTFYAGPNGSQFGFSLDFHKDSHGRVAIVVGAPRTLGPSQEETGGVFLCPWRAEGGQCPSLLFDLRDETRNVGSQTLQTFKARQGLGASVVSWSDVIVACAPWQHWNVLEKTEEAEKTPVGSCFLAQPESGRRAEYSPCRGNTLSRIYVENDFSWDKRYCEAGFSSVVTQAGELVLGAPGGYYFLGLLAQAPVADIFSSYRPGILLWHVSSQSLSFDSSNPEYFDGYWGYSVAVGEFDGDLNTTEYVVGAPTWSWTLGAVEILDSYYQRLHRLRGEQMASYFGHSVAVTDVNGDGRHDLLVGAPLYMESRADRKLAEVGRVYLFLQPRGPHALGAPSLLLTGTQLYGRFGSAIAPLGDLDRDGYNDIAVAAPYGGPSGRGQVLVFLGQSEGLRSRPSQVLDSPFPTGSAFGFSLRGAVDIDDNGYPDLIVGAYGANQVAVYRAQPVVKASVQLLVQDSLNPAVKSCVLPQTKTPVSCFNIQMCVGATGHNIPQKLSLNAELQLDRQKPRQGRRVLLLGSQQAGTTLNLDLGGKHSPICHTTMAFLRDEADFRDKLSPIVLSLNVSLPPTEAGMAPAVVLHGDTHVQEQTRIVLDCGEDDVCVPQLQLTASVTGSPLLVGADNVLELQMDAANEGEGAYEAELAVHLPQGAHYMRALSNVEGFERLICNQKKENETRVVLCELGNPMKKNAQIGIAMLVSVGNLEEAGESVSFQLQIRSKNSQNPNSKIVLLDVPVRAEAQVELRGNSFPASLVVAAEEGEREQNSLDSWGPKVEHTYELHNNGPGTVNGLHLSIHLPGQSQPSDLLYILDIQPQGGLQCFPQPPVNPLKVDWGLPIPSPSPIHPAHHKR
Sequence of Integrin alpha-IIb/beta-3 (P08514 891-1039 limits assumed): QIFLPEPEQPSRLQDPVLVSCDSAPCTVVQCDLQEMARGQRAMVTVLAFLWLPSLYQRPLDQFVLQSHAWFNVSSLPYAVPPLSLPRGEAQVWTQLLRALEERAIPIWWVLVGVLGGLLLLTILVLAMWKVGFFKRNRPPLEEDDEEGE
T1 sequence (P05106 27-788 limits assumed): as the sequence (P05106 27-788 limits assumed) above
T1 sequence (P06756 31-889 limits assumed): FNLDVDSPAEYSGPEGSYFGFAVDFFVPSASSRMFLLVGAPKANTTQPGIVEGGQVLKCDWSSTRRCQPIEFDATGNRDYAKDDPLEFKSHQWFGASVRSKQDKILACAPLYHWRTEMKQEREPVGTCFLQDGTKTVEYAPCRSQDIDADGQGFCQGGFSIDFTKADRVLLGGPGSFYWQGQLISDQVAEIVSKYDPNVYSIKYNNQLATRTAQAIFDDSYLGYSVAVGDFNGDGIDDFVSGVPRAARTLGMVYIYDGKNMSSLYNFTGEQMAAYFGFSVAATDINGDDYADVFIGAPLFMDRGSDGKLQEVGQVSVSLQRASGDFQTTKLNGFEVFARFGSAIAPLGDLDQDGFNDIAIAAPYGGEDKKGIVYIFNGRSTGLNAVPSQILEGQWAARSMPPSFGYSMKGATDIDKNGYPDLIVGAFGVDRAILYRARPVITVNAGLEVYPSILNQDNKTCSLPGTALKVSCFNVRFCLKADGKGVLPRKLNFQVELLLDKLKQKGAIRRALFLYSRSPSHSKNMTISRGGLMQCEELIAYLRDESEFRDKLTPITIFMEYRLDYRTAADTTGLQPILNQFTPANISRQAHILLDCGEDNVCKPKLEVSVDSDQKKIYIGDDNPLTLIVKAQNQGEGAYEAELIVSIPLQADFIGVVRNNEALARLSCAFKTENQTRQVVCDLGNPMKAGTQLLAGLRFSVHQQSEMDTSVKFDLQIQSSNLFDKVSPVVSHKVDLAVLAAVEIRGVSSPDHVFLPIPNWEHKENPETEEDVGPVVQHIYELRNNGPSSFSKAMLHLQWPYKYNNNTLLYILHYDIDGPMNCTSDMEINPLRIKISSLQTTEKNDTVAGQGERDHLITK
T1 sequence (P06756 891-1048 limits assumed): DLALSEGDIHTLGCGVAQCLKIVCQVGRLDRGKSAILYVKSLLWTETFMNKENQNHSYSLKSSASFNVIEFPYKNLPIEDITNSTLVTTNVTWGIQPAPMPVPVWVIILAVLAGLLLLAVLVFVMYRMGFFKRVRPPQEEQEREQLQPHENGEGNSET
Sequence of Macrophage metalloelastase (P39900 whole entry): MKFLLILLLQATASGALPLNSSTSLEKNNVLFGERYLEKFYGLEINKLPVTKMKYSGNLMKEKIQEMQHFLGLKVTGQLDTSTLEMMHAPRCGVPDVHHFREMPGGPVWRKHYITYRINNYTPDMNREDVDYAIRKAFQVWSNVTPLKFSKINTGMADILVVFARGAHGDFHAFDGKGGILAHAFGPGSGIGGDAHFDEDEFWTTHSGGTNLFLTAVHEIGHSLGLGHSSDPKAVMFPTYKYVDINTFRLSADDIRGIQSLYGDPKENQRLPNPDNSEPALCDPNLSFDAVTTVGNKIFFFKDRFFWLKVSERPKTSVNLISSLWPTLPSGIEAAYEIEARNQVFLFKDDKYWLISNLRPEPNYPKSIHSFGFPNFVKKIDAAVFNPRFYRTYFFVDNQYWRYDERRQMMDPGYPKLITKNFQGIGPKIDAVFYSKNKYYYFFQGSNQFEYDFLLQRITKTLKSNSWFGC

Structure (SMILES)	IC50 (Integrin alpha-V/beta-3 [3]) [nM]	IC50 [4] [nM]	IC50 [5] [nM]	IC50 (Integrin alpha-V/beta-3 [6]) [nM]	further results
O=C(O)Cc1ccc(CNC(=O)c2cc(-c3ccc(-c4ccccc4)cc3)cs2)cc1					IC50 [1]: 70 nM; solubility [2]: < 0.001 mg/mL
COc1cc(C(=O)NC[C@H](NS(=O)(=O)c2ccccc2)C(=O)O)ccc1N1CCC(NC2=NCCCN2)CC1	110	130	0.44		
O=C(NC[C@H](NS(=O)(=O)c1ccc(O)cc1)C(=O)O)c1ccc(N2CCC(NC3=NCCCN3)CC2)c(O)c1	390	510	0.94	0.3	
O=C(O)c1ccc(S(=O)(=O)N[C@@H](CNC(=O)c2ccc(N3CCC(NC4=NCCCN4)CC3)c(F)c2)C(=O)O)cc1	660	930	1.2	0.77	
O=C(NC[C@H](NS(=O)(=O)c1ccccc1)C(=O)O)c1ccc(N2CCC[C@H](NC3=NCCCN3)C2)cc1F	16	290	0.78	0.23	solubility ([7]; water): 2.8 mg/mL (≈ 5120 µM)
O=C(O)Cc1ccc(CNC(=O)c2cc(-c3ccc(-c4ccccc4O)cc3)cs2)cc1					IC50 [1]: 90 nM; solubility [2]: 0.134 mg/mL (≈ 302 µM)
CCCCOc1ccc(-c2ccc(C(=O)O)cc2)cc1CNC(=O)c1ccc(C(F)(F)F)cc1F					Activity [8]: inactive
O=C(NC[C@H](NS(=O)(=O)c1ccccc1)C(=O)O)c1ccc(N2CCC[C@H](N=C3NCCCN3)C2)cc1	31	83	0.56	0.48	solubility ([7]; buffer): 3.5 mg/mL (≈ 6620 µM)
CCCCOc1ccc(-c2ccc(C(=O)O)cc2C)cc1CNC(=O)c1ccc(C(F)(F)F)cc1F					Activity [8]: inactive
O=C(NC[C@H](NS(=O)(=O)c1cccs1)C(=O)O)c1ccc(N2CCC[C@H](NC3=NCCCN3)C2)cc1	52	99	0.4	0.25	solubility ([7]; water): 3.3 mg/mL (≈ 6170 µM)
O=C(NC[C@H](NS(=O)(=O)c1ccccc1)C(=O)O)c1ccc(N2CCC(NC3=NCCCN3)CC2)c(O)c1	530	170	0.98	0.44	
CC(c1ccncc1)n1[nH]c(=O)c2[nH]c3cc(Cl)ccc3c(=O)c2c1=O.CS(=O)(=O)O (stereo not drawn)					solubility [9]: > 0.29 mg/mL
CCCCOc1ccc(-c2c(F)ccc(C(=O)O)c2F)cc1CNC(=O)c1ccc(C(F)(F)F)cc1F					Activity [8]: inactive
O=c1cc(-c2ccccc2)oc2ccc3ccccc3c12 [BETA-NAPHTHOFLAVONE]					solubility [2]: < 0.00015 mg/mL
O=C(NC[C@H](NS(=O)(=O)c1ccccc1)C(=O)O)c1ccc(N2CCC(NC3=NCCCN3)CC2)c(Cl)c1	72	90	0.023	0.17	
O=C(NC[C@H](NS(=O)(=O)c1ccccc1)C(=O)O)c1ccc(N2CCC(NC3=NCCCN3)CC2)c(F)c1	48	37	0.21	0.36	solubility ([7]; buffer): 0.6 mg/mL (≈ 1100 µM)
Cc1c(N2CC[C@H](N)C2)c(F)cn2c(=O)c(C(=O)O)cc(C3CC3)c12 [ABT-719]					IC50 [10]: 0.03 mg/L (≈ 0.0869 µM)
CS(=O)(=O)O.O=c1c2ccc(Cl)cc2[nH]c2c(O)nn(Cc3ccncc3)c(=O)c12					bioavailability [11]: 5%
O=C(NC[C@H](NS(=O)(=O)c1ccc(O)cc1)C(=O)O)c1ccc(N2CCC(NC3=NCCCN3)CC2)c(F)c1	53	230	0.18	0.14	solubility ([7]; water): 0.1 mg/mL (≈ 178 µM)
CCCCOc1ccc(-c2ccc(C(=O)O)cc2F)cc1CNC(=O)c1ccc(C(F)(F)F)cc1F					Activity [8]: inactive
Clc1ccc(-c2ccccc2Cl)cc1					solubility ([7]; water): 0.637 mg/mL (≈ 2860 µM)
O=C(O)c1cc(C2CC2)c2cc(N3CCNCC3)c(F)cn2c1=O					IC50 [10]: 0.15 mg/L (≈ 0.453 µM)
O=C(NC[C@H](NS(=O)(=O)c1ccccc1)C(=O)O)c1ccc(N2CCC(NC3=NCCCN3)CC2)cc1	190	290	3	1.3	solubility ([7]; water): < 0.1 mg/mL

Reference: ChEMBL document CHEMBL1782016, “Improvement in aqueous solubility in small molecule drug discovery programs by disruption of molecular planarity and symmetry” (J Med Chem, 2011)
